Test system: 6-OHDA lesioned rat
Experiment: 6-OHDA lesioned rat model of Parkinson's disease (cylinder, adjusting step, rotation, TH staining)
Type: in vivo
Details: prophylactic, high and moderate groups vs vehicle, trend
Protocol: 1. Animals: male SO rats were purchased from Shanghai Laboratory Animal Center (SLAC). They were housed under 21-23 OC, with 12 h light-dark life cycle. Food and water were given ad libitum.
2. 6uOHDA lesion: Rats were anesthetized with 60 mg/kg sodium pentobarbital. They were stereotaxic injected with total dose of 20 pg of fresh prepared 6-OHDA (dissolved in saline containing 0.05% ascorbic acid, calculated as free base) into tvvo sites of the left striatum, using the following coordinates (in mm relative to Bregma): AP+i 0.0, L −2.5, DV −5.0; AP −0.4, L −4.0, DV −5.5. The injection rate was i pi/min and a total of 2 iJI was injected at each site. The needle was left in place for 3 min before retracting.
3. Cylinder test: Rats were placed in a transparent cylinder (22 cm in diameter and 30 cm height). Animal would rear and support its body with one or both of its forelimbs. […] Each behavioral was expressed as percent use of left, right or both limb(s) relative to the total number.
4. […] The number of adjusting steps of each left and right forelimbs on both directions was recorded individually. […]
6. […] Number of positively stained cells in the left and right sides of SN in each section was counted to make the summation. The ratio of left/right was calculated.
7. Statistic analysis: Data were expressed as mean±SEI\tl and analyzed with ANOVA followed by Tukey test. […]

human Apoiipoprotein AI, injection [APOA1]
neuron count, damage caused by 6-OHDA lesion: reduce the damage caused by 6-OHDA lesion

Reference: patent publication US20170198027A1 (priority 2012, published 2017)
